Test results as given in patent US11110070B2 (priority 2015, dated 2021).

Test system: adult hippocampal neurogenesis
Experiment: Doublecortin and Ki67 immunohistochemistry, dentate gyrus
Type: in vivo, mice
Details: for number of Ki67+ cells: ketamine vs saline (FIG. 6K)
Procedure: Mice were deeply anesthetized with ketamine (100 mg kg) and transcardially perfused with IX phosphate buffer saline (PBS), followed by chilled 4% paraformaldehyde (PFA)/IX PBS (A15), Brains were post-fixed overnight in 4% PFA at 4° C., then cryoprotected in 30% sucrose/1× PBS, and stored at 4° C. Serial coronal sections (35 μm) were cut through the entire hippocampus on a cryostat and stored in IX PBS with 0.1% NaN3. Doublecortin (DCX) immunohistochemistry was performed as previously described (A15). For DCX immunohistochemistry, sections were washed in 1× PBS containing 0.5% Triton and then quenched in 0.3% H2O2 in IX PBS/CH3OH (1:1) for 15 min at room temperature. Sections were blocked in 10% normal donkey serum in 1× PBS with 0.5% Triton X-100 for 2 h at room temperature. Incubation with primary antibody was performed at 4° C. overnight (goat anti-DCX, 1:500, Santa Cruz Biotechnology, Santa Cruz, Calif., #SC 8,066) in 1× PBS with 0.5% Triton X-100. Sections were then incubated with a biotinylated secondary antibody (donkey anti-goat; 1:250, Jackson lmmunoResearch, West Grove, Pa.) for 2 h at room temperature. Sections were treated with avidin-biotin-peroxidase complex (ABC Elite Kit, Vector Labs, Burlingame, Calif.) followed by 3,3′ diaminobenzidine as a substrate for staining (Vector, Burlingame, Calif.).
Ki67 immunohistochemistry was performed as previously described (A16). For Ki67 immunohistochemistry, sections were washed in 1× PBS containing 0.5% Triton, and then blocked in 10% normal donkey serum in 1× PBS with 0.5% Triton X-100 for 2 h at room temperature. Incubation with primary antibody was performed at 4° C. overnight (rabbit anti-Ki67, 1:100, Vector Laboratories. Burlingame, Calif., #VP-RM04) in 1× PBS with 0.5% Triton X-100. Sections were then incubated with a biotinylated secondary antibody (donkey anti-rabbit; 1:250, Jackson ImmunoResearch, West Grove, Pa.) for 2 h at room temperature. Sections were treated with avidin-biotin-peroxidase complex (ABC Elite Kit, Vector Labs, Burlingame, Calif.) followed by 3,3′ diaminobenzidine as a substrate for staining (Vector, Burlingame, Calif.).
An investigator blind to treatment used a Zeiss Axioplan-2 upright microscope (Oberkochen, Germany) to count cells bilaterally in the granule cell layer of the dentate gyms throughout the entire rostra-caudal axis of the hippocampus (HPC). Every sixth section throughout the entire extent of the HPC was included in the analysis. Cells were counted bilaterally using a 20× objective. The average cells per section are presented throughout the text.

CNC1(c2ccccc2Cl)CCCCC1=O (racemic) [ketamine, (RS)-2-(2-chlorophenyl)-2-(methylamino)cyclohexanone]
number of Ki67+ cells (Ctrl mice): increases | number of Ki67+ cells (SD mice): not in SD mice | number of Ki67 cells in the dentate gyrus (ketamine administered after SD): significantly increases the number of Ki671 cells | DCX levels (ketamine in post-SD design (FIG. 6L)): does not alter DCX levels | adult hippocampal neurogenesis (levels of doublecortin and Ki67) (prophylactic ketamine before SD): did not observe an effect
